According to patent US6350778B1, “Cinnamoylaminoalkyl-substituted benzenesulfonamide derivatives, processes for their preparation, their use, and pharmaceutical preparations comprising them” (Aventis Pharma Deutschland GmbH, priority 1999, dated 2002):
Values joined by “and” are separate entries in the source; they are usually repeats but may differ in a detail not shown here. Equal entries are not always repeated.

Columns and labels:
[1] = system: chloroform-induced ventricular fibrillation in the mouse; assay: Chloroform-induced ventricular fibrillation in the mouse (action in the case of vagal dysfunction); assay type: in vivo; conditions: for Fibrillation ratio (in %): 3 mg/kg i.p., chloroform anesthesia 30 min later, untreated control 100%
Source text: Chloroform-induced ventricular fibrillation in the mouse (action in the case of vagal dysfunction) A hypofunction of the vagal nervous system leads to a hyperfunction of the sympathetic nervous system. Damages to health which result from an imbalance of the autonomic nervous system if the dysfunction relates to the heart, include weakening of the myocardial contractile force and fatal cardiac arrhythmias such as ventricular fibrillation. The action of the test substances was investigated in the model of chloroform-induced ventricular fibrillation in the mouse (see J. W. Lawson, “Antiarrhythmic activity of some isoquinoline derivatives determined by a rapid screening procedure in the mouse,” J. Pharmacol. Exp. Ther. 160 (1968) 22). […] As soon as respiratory arrest had occurred under deep anesthesia (toxic anesthesia stage), the thorax of the animal was opened with a pair of scissors and the heartbeat was visually inspected. It can be detected at a glance here whether the heart is beating, fibrillating, or has stopped. The respiratory arrest induced by chloroform leads, via absolute anoxia (oxygen deficiency) in combination with a direct stimulating action of chloroform on the sympathetic nervous system, to a strong stimulation of the sympathetic nervous system which in turn leads, in combination with the energy deficiency produced in the heart by oxygen deficiency, to the fatal arrhythmia, ventricular fibrillation. […] The percentage proportion of the mice having ventricular fibrillation in the individual test groups (with n animals) is indicated as the fibrillation ratio. The following fibrillation ratios were determined. […] The experiment is carried out here as described above. […] After a further 15 min, the animals were anesthetized with chloroform and the fibrillation ratio was determined.

[2] = system: papillary muscle of the guinea pig; assay: Action potential duration (APD90) in the papillary muscle of the guinea pig, shortened by rilmakalim (HOE 234); assay type: cell-based; conditions: starting values 185-193 ms; for APD90 + HOE 234, 30 min, then + test substance, 60 min: test substance 2 μmol/l added after 30 min rilmakalim (HOE 234) 1 μg/ml, recorded after a further 60 min
Source text: Action potential duration in the papillary muscle of the guinea pig
ATP deficiency states, such as are observed during ischemia in the cardiac muscle cell, lead to a shortening of the action potential duration. They are regarded as one of the causes of so-called reentry arrhythmias, which can cause sudden cardiac death. The opening of ATP-sensitive potassium channels by the lowering of the ATP level is regarded as causing this (ATP=adenosine triphosphate). For the measurement of the action potential in the papillary muscle of the guinea pig a standard microelectrode technique was employed.
Guinea pigs of both sexes were killed by a blow to the head, the hearts were removed, and the papillary muscles were separated out and suspended in an organ bath. The organ bath was irrigated with Ringer's solution (136 mmol/l of NaCl, 3.3 mmol/l of KCl, 2.5 mmol/l of CaCl2, 1.2 mmol/l of KH2PO4, 1.1 mmol/l of MgSO4, 5.0 mmol/l of glucose, and 10.0 mmol/l of N-(2-hydroxyethyl)piperazine-N′-(2-ethanesulfonic acid) (HEPES), pH adjusted to 7.4 with NaOH) and aerated with 100% oxygen at a temperature of 37° C. The muscle was stimulated by means of an electrode using square-wave impulses of 1 V and 1 ms duration and a frequency of 1 Hz. The action potential was derived and recorded by means of a glass microelectrode inserted intracellularly, which was filled with 3 mol/l of KCl solution. The substance to be tested was added to the Ringer's solution in a concentration of 2 μmol/l. The action potential was amplified using an amplifier from Hugo Sachs (March-Hugstetten, Germany) and stored and analyzed by means of a computer. The duration of the action potential was determined at a degree of repolarization of 90% (APD90). The action potential shortening was produced by addition of a solution of the potassium channel opener Rilmakalim (HOE 234) (W. Linz et al., Arzneimittelforschung/Drug Research, 42 (II) (1992) 1180-1185) (rilmakalim concentration 1 μg/ml). 30 minutes after the administration of rilmakalim, the action potential duration was recorded. The test substance was then added and the action potential duration, which was prolonged again, was recorded after a further 60 minutes. The test substances were added to the bath solution as stock solutions in propanediol.
The following APD90 values (in milliseconds) were recorded.

[3] = atropine 1 mg/kg i.v., chloroform 15 min after administration, n = 10
[4] = Example 8 10 mg/kg i.p., chloroform 30 min after administration, n = 20

In the case of CN1[C@@H]2CC[C@H]1C[C@@H](OC(=O)C(CO)c1ccccc1)C2 (some centres unmarked) [Atropine, atropine, reference compound], the Fibrillation ratio [1, 3] was 100%, the “Number of animals with fibrillation” value [1, 3] was 10 and the “Number of animals with regular heart action” value [1, 3] was 0.
With CNC(=S)NS(=O)(=O)c1cc(CCNC(=O)/C=C/c2ccc(OC)cc2OC)ccc1OC [Example 1, 1-(5-(2-(2,4-Dimethoxycinnamoylamino)ethyl)-2-methoxyphenysulfonyl)-3-methylthiourea] the “APD90 + HOE 234, 30 min, then + test substance, 60 min” value (“APD90 + HOE 234, 30 min … 60 min” below) [2] was 177 milliseconds and the “Fibrillation ratio (in %)” value ([1]; n = 10) was 60%.
With CNC(=O)NS(=O)(=O)c1cc(CCNC(=O)/C=C/c2ccc(OC)cc2OC)ccc1OC [Example 2, 1-(5-(2-(2 ,4-Dimethoxycinnamoylamino)ethyl)-2-methoxyphenylsulfonyl)-3-methylurea] the melting point was 210 °C.
Work on CCNC(=S)NS(=O)(=O)c1cc(CCNC(=O)/C=C/c2ccc(OC)cc2OC)ccc1OC [Example 3, 1-(5-(2-(2,4-Dimethoxycinnamoylamino)ethyl)-2-methoxyphenylsulfonyl)-3-ethylthiourea] yielded a melting point of 90 °C.
Molecule CCNC(=O)NS(=O)(=O)c1cc(CCNC(=O)/C=C/c2ccc(OC)cc2OC)ccc1OC [Example 4, 1-(5-(2-(2,4-Dimethoxycinnamoylamino)ethyl)-2-methoxyphenylsulfonyl)-3-ethylurea] has a melting point of 96 °C.
In the case of CNC(=S)NS(=O)(=O)c1cc(CCNC(=O)/C=C/c2ccc(C)cc2C)ccc1OC [Example 5, 1-(5-(2-(2,4-Dimethylcinnamoylamino)ethyl)-2-methoxyphenylsulfonyl)-3-methylthiourea], the “Fibrillation ratio (in %)” value ([1]; n = 10) was 70%.
With CNC(=O)NS(=O)(=O)c1cc(CCNC(=O)/C=C/c2ccc(C)cc2C)ccc1OC [Example 6, 1-(5-(2-(2,4-Dimethylcinnamoylamino)ethyl)-2-methoxyphenylsulfonyl)-3-methylurea] the melting point was 227 to 229 °C.
For CNC(=S)NS(=O)(=O)c1cc(CCNC(=O)/C=C/c2ccc(OC)cc2OC)ccc1OCCOC [Example 7, 1-(5-(2-(2,4-Dimethoxycinnamoylamino)ethyl)-2-(2-methoxyethoxy)phenylsulfonyl)-3-methylthiourea], the “APD90 + HOE 234, 30 min … 60 min” value [2] was 175 milliseconds.
With CNC(=O)NS(=O)(=O)c1cc(CCNC(=O)/C=C/c2ccc(OC)cc2OC)ccc1OCCOC [Example 8, 1-(5-(2-(2,4-Dimethoxycinnamoylamino)ethyl)-2-(2-methoxyethoxy)phenysulfonyl)-3-methylurea] the “APD90 + HOE 234, 30 min … 60 min” value [2] was 92 milliseconds, the “Fibrillation ratio (in %)” value ([1]; n = 10) was 60% and the “Number of animals with fibrillation” value [1, 4] was 9. For the same molecule, the “Number of animals with regular heart action” value [1, 4] was 11 and the Fibrillation ratio ([1]; Example 8 10 mg/kg i.p., chloroform 30 min after administration, n = 20, p < 0.0001 vs atropine, p = 0.024 vs combination) was 45% ^1), 2).
With CCNC(=S)NS(=O)(=O)c1cc(CCNC(=O)/C=C/c2ccc(OC)cc2OC)ccc1OCCOC [Example 9, 1-(5-(2-(2,4-Dimethoxycinnamoylamino)ethyl)-2-(2-methoxyethoxy)phenylsulfonyl)-3-ethylthiourea] the “Fibrillation ratio (in %)” value ([1]; n = 10) was 63%.
For CNC(=S)NS(=O)(=O)c1cc(CCNC(=O)/C=C/c2ccccc2)ccc1OC [Example 12, 1-(5-(2-(Cinnamoylamino)ethyl)-2-methoxyphenylsulfonyl)-3-methylthiourea], the “Fibrillation ratio (in %)” value ([1]; n = 10) was 63%.
CNC(=S)NS(=O)(=O)c1cc(CCNC(=O)/C=C/c2ccccc2)ccc1OCCOC [Example 17, 1-(5-(2-(Cinnamoylamino)ethyl)-2-(2-methoxyethoxy)phenylsulfonyl)-3-methylthiourea] showed a melting point of 150 °C.
For CNC(=O)NS(=O)(=O)c1cc(CCNC(=O)/C=C/c2ccccc2)ccc1OCCOC [Example 19, 1-(5-(2-(Cinnamoylamino)ethyl)-2-(2-methoxyethoxy)phenylsulfonyl)-3-methylurea], the melting point was 65 °C.
CNC(=S)NS(=O)(=O)c1cc(CCNC(=O)/C=C/c2cc(Cl)ccc2OC)ccc1OC [Example 21, 1-(5-(2-(5-Chloro-2-methoxycinnamoylamino)ethyl)-2-methoxyphenylsulfonyl)-3-methylthiourea] gave a melting point of 188 to 190 °C.
C=CCOc1ccc(CCNC(=O)/C=C/c2ccc(OC)cc2OC)cc1S(=O)(=O)NC(=S)NC [Example 23, 1-(2-Allyloxy-5-(2-(2,4-dimethoxycinnamoylamino)ethyl)phenylsulfonyl)-3-methylthiourea] gave a melting point of 171 to 175 °C.
For CNC(=S)NS(=O)(=O)c1cc(CCNC(=O)/C=C/c2ccc(Cl)cc2Cl)ccc1OCCOC [Example 24], the melting point was 76 to 78 °C.
In the case of CNC(=S)NS(=O)(=O)c1cc(CCNC(=O)/C=C/c2cc(C(C)(C)C)ccc2OC)ccc1OCCOC [Example 25, 1-(5-(2-(5-tert-Butyl-2-methoxycinnamoylamino)ethyl)-2-(2-methoxyethoxy)phenyl-sulfonyl)-3-methylthiourea], the melting point was 73 °C.
CNC(=S)NS(=O)(=O)c1cc(CCNC(=O)/C=C/c2ccc(C)cc2C)ccc1OCCOC [Example 26, 1-(5-(2-(2,4-Dimethylcinnamoylamino)ethyl)-2-(2-methoxyethoxy)phenylsufonyl)-3-methylthiourea] showed a melting point of 116 °C.
In the case of CC1(C)Oc2ccc(S(=O)(=O)c3ccccc3)cc2[C@@H](N2CCCC2=O)[C@@H]1O [HOE 234, Rilmakalim, reference compound], the “APD90 + HOE 234, 30 min” value ([2]; potassium channel opener rilmakalim (HOE 234) 1 μg/ml alone, 30 min, before test substance, 37° C., 1 Hz) was 24 milliseconds and 34 milliseconds.
